Starred links: 1 amine or outer side, 2 acyl side, 3 side chain; linkers in the order of their positions; H or OH if unused. Positions of bridges follow the written chain, without caps; N, C: chain ends. Residues, ends and D or L forms follow the SMILES beside them. *: point of attachment. X9 = CC(C)[C@@H](CNC(N)=O)NC(=O)NC[C@H](CSCc1ccc(-c2ccc(C[*:1])cc2)cc1)NC(=O)NC[C@H](C)N[*:2]; X12 = CC(C)[C@@H](CNC(N)=O)NC(=O)NC[C@H](C)NC(=O)NC[C@H](CSCc1ccc(C[*:1])cc1)N[*:2]; X1 = CC(C)[C@@H](CNC(N)=O)NC(=O)NC[C@H](C)NC(=O)NC[C@H](CSCCCCCC[*:1])N[*:2]; X13 = CC(C)[C@@H](CNC(N)=O)NC(=O)NC[C@H](C)NC(=O)NC[C@H](CSCCCCC[*:1])N[*:2]; X6 = CC(C)[C@@H](CNC(N)=O)NC(=O)NC[C@H](CSCCCCCC[*:1])NC(=O)NC[C@H](C)N[*:2]; X10 = CC(C)[C@@H](CNC(N)=O)NC(=O)NC[C@H](CSCCC[*:1])NC(=O)NC[C@H](C)N[*:2]; X8 = C[C@@H](CNC(N)=O)NC(=O)NC[C@H](C)NC(=O)NC[C@H](CSC/C=C/C[*:1])N[*:2]; X3 = CC(C)[C@@H](CNC(N)=O)NC(=O)NC[C@H](C)NC(=O)NC[C@H](C)N*; CH2CONHCH2CH2NHCOCH2 = O=C(C[*:1])NCCNC(=O)C[*:2]; pXylylene = c1cc(C[*:2])ccc1C[*:1]; X14 = C(=C\C[*:2])/C[*:1]; X11 = C(CCC[*:2])CC[*:1]; CH2CH2 = C(C[*:2])[*:1]; X7 = C(CC[*:1])CC[*:2]

Assay [1] deals with Tumour suppressor p53/oncoprotein Mdm2 (Homo sapiens) (UniProt P04637+Q00987). Put plainly: PROTAC activity at human MDM2/p53 extracted from Escherichia coli interaction by measuring inhibition of interaction at 100 nM by time-resolved fluorescence energy transfer (TRFRET) detection method relative to control. The assay is classed as protein assay. For orientation: Time-resolved FRET reads energy transfer from a long-lived donor to a nearby acceptor.

The target of assay [2] is Tumour suppressor protein p53/Mdm4 (Homo sapiens) (UniProt P04637+O15151). The experiment in a line: PROTAC activity at human DMX/p53 extracted from Escherichia coli interaction at 100 nM by measuring inhibition of interaction by time-resolved fluorescence energy transfer (TRFRET) detection method relative to control. The class given is protein assay.
Tumour suppressor protein p53/Mdm4 (Homo sapiens), sequence (O15151 whole entry, looked up): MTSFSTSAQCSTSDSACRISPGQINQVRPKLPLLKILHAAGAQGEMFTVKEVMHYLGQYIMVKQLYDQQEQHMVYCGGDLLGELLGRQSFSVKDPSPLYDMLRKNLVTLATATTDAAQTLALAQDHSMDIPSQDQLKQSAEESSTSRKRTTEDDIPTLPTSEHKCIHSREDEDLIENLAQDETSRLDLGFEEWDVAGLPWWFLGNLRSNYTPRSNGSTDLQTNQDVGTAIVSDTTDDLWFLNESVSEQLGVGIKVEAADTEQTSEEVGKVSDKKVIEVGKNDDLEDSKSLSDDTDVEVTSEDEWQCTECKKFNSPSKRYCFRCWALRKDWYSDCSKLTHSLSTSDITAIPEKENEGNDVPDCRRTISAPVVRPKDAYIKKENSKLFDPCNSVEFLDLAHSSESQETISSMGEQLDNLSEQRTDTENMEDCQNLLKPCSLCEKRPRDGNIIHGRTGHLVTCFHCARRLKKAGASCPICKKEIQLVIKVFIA
Tumour suppressor protein p53/Mdm4 (Homo sapiens), sequence (P04637 whole entry, looked up): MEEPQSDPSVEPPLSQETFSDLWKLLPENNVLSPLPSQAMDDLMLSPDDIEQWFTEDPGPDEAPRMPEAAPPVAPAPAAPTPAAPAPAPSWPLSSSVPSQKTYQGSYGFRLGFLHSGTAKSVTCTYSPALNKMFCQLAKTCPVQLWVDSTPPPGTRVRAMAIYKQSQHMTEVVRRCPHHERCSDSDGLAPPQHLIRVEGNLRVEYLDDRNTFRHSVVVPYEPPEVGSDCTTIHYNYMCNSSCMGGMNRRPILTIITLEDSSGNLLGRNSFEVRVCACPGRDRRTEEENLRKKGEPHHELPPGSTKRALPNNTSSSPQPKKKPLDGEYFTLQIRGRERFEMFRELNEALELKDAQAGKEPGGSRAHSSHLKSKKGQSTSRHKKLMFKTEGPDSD

Tumour suppressor p53/oncoprotein Mdm2 (Homo sapiens), sequence (P04637 whole entry, looked up): as above
Tumour suppressor p53/oncoprotein Mdm2 (Homo sapiens), sequence (Q00987 whole entry, looked up): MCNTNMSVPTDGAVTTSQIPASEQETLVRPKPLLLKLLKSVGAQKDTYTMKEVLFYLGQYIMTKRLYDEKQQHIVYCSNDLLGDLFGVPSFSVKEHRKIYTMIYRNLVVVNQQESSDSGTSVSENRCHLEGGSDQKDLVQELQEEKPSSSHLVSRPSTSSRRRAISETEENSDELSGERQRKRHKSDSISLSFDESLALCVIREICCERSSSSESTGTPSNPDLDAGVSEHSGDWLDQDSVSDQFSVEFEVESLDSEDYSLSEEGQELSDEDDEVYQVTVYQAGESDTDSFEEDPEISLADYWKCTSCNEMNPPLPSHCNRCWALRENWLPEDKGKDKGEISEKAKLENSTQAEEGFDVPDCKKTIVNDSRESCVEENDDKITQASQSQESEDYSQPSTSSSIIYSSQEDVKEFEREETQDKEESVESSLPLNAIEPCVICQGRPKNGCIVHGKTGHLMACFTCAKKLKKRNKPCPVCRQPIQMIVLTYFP

A word on the inhibition: it is the relative decrease from the control value, in per cent. In the case of `CC(C)[C@@H](CNC(N)=O)NC(=O)NC[C@H](C)NC(=O)NC[C@H](C)NC(=O)[C@H](Cc1c[nH]c2ccccc12)NC(=O)[C@H](Cc1ccc(O)cc1)NC(=O)[C@@H]1CSSC[C@H](N)C(=O)N[C@@H](CO)C(=O)N[C@@H](Cc2ccccc2)C(=O)N[C@@H](C)C(=O)N1` (H-CSFACYW-X3; disulfide 1-5), the inhibition was 20% in assay [1] and -4% in assay [2].

Take `CC(C)[C@@H](CNC(N)=O)NC(=O)NC[C@H](C)NC(=O)NC[C@H](C)NC(=O)[C@H](Cc1c[nH]c2ccccc12)NC(=O)[C@H](Cc1ccc(O)cc1)NC(=O)[C@@H]1CSCCSC[C@H](N)C(=O)N[C@@H](CO)C(=O)N[C@@H](Cc2ccccc2)C(=O)N[C@@H](C)C(=O)N1` (H-CSFACYW-X3; linker 1-5 via CH2CH2): the values for the inhibition in assay [1] and in assay [2] were 47% and 39%, respectively.

In the case of `CC(C)[C@@H](CNC(N)=O)NC(=O)NC[C@H](C)NC(=O)NC[C@H](C)NC(=O)[C@H](Cc1c[nH]c2ccccc12)NC(=O)[C@H](Cc1ccc(O)cc1)NC(=O)[C@@H]1CSCC(=O)NCCNC(=O)CSC[C@H](N)C(=O)N[C@@H](CO)C(=O)N[C@@H](Cc2ccccc2)C(=O)N[C@@H](C)C(=O)N1` (H-CSFACYW-X3; linker 1-5 via CH2CONHCH2CH2NHCOCH2), the inhibition in assay [1] amounted to 83%; in assay [2], 47%.

Consider `CC(C)[C@@H](CNC(N)=O)NC(=O)NC[C@H](C)NC(=O)NC[C@H](C)NC(=O)[C@H](Cc1c[nH]c2ccccc12)NC(=O)[C@H](Cc1ccc(O)cc1)NC(=O)[C@@H]1CSCCCCCSC[C@H](N)C(=O)N[C@@H](CO)C(=O)N[C@@H](Cc2ccccc2)C(=O)N[C@@H](C)C(=O)N1` (H-CSFACYW-X3; linker 1-5 via X7), for which the results for the inhibition in assay [1] and in assay [2] were 58% and 16%, respectively.

Consider `CC(C)[C@@H](CNC(N)=O)NC(=O)NC[C@H](C)NC(=O)NC[C@H](C)NC(=O)[C@H](Cc1c[nH]c2ccccc12)NC(=O)[C@H](Cc1ccc(O)cc1)NC(=O)[C@@H]1CSCCCCCCSC[C@H](N)C(=O)N[C@@H](CO)C(=O)N[C@@H](Cc2ccccc2)C(=O)N[C@@H](C)C(=O)N1` (H-CSFACYW-X3; linker 1-5 via X11), for which the inhibition is 15% in assay [1] and 1% in assay [2].

Regarding `CC(C)[C@@H](CNC(N)=O)NC(=O)NC[C@H](C)NC(=O)NC[C@H](C)NC(=O)[C@H](Cc1c[nH]c2ccccc12)NC(=O)[C@H](Cc1ccc(O)cc1)NC(=O)[C@@H]1CSC/C=C/CSC[C@H](N)C(=O)N[C@@H](CO)C(=O)N[C@@H](Cc2ccccc2)C(=O)N[C@@H](C)C(=O)N1` (H-CSFACYW-X3; linker 1-5 via X14), the inhibition turned out to be 88% in assay [1] and 68% in assay [2].

With `CC(C)[C@@H](CNC(N)=O)NC(=O)NC[C@H](C)NC(=O)NC[C@H](C)NC(=O)[C@H](Cc1c[nH]c2ccccc12)NC(=O)[C@H](Cc1ccc(O)cc1)NC(=O)[C@@H]1CSCc2ccc(cc2)CSC[C@H](N)C(=O)N[C@@H](CO)C(=O)N[C@@H](Cc2ccccc2)C(=O)N[C@@H](C)C(=O)N1` (H-CSFACYW-X3; linker 1-5 via pXylylene), the inhibition in assay [1] turned out to be 37%; in assay [2] it was 14%.

With `CC(C)[C@@H](CNC(N)=O)NC(=O)NC[C@@H]1CSCCCCCCSC[C@H](N)C(=O)N[C@@H](CO)C(=O)N[C@@H](Cc2ccccc2)C(=O)N[C@@H](C)C(=O)N[C@@H](CCC(=O)O)C(=O)N[C@@H](Cc2ccc(O)cc2)C(=O)N[C@@H](Cc2c[nH]c3ccccc23)C(=O)N[C@@H](C)CNC(=O)N1` (H-CSFAEYW; linker 1-C via X6), the figures for the inhibition in assay [1] and in assay [2] were 70% and 54%, respectively.

Regarding `CC(C)[C@@H](CNC(N)=O)NC(=O)NC[C@@H]1CSCc2ccc(cc2)-c2ccc(cc2)CSC[C@H](N)C(=O)N[C@@H](CO)C(=O)N[C@@H](Cc2ccccc2)C(=O)N[C@@H](C)C(=O)N[C@@H](CCC(=O)O)C(=O)N[C@@H](Cc2ccc(O)cc2)C(=O)N[C@@H](Cc2c[nH]c3ccccc23)C(=O)N[C@@H](C)CNC(=O)N1` (H-CSFAEYW; linker 1-C via X9), the inhibition was found to be 7% in assay [1] and 10% in assay [2].

In the case of `CC(C)[C@@H](CNC(N)=O)NC(=O)NC[C@H](C)NC(=O)NC[C@H](C)NC(=O)[C@H](Cc1c[nH]c2ccccc12)NC(=O)[C@H](Cc1ccc(O)cc1)NC(=O)[C@H](CCC(=O)O)NC(=O)[C@H](C)NC(=O)[C@H](Cc1ccccc1)NC(=O)[C@H](CO)NC(=O)[C@@H](N)CCCCN` (H-KSFAEYW-X3), the inhibition amounted to 98% in assay [1] and 85% in assay [2].

As for `CC(C)[C@@H](CNC(N)=O)NC(=O)NC[C@H](C)NC(=O)NC[C@H](C)NC(=O)[C@H](Cc1c[nH]c2ccccc12)NC(=O)[C@H](Cc1ccc(O)cc1)NC(=O)[C@H](CCC(=O)O)NC(=O)[C@H](C)NC(=O)[C@H](Cc1ccccc1)NC(=O)[C@H](CO)NC(=O)[C@@H](NC(=O)[C@H](CCCNC(=N)N)NC(=O)[C@H](CCCNC(=N)N)NC(=O)[C@@H](N)CCCNC(=N)N)[C@@H](C)O` (H-RRRTSFAEYW-X3), the inhibition in assay [1] stood at 95%; in assay [2], 81%.

Regarding `CC(C)[C@@H](CNC(N)=O)NC(=O)NC[C@H](C)NC(=O)NC[C@H](C)NC(=O)[C@H](Cc1c[nH]c2ccccc12)NC(=O)[C@H](Cc1ccc(O)cc1)NC(=O)[C@@H]1CSSC[C@H](NC(=O)[C@@H](N)[C@@H](C)O)C(=O)N[C@@H](Cc2ccccc2)C(=O)N[C@@H](C)C(=O)N1` (H-TCFACYW-X3; disulfide 2-5), the inhibition in assay [1] amounted to 50%; in assay [2] it was 23%.

`CC(C)[C@@H](CNC(N)=O)NC(=O)NC[C@H](C)NC(=O)NC[C@H](C)NC(=O)[C@H](Cc1c[nH]c2ccccc12)NC(=O)[C@H](Cc1ccc(O)cc1)NC(=O)[C@@H]1CSCC(=O)NCCNC(=O)CSC[C@H](NC(=O)[C@@H](N)[C@@H](C)O)C(=O)N[C@@H](Cc2ccccc2)C(=O)N[C@@H](C)C(=O)N1` (H-TCFACYW-X3; linker 2-5 via CH2CONHCH2CH2NHCOCH2): the values for the inhibition in assay [1] and in assay [2] were 73% and 38%, respectively.

On to `CC(C)[C@@H](CNC(N)=O)NC(=O)NC[C@H](C)NC(=O)NC[C@H](C)NC(=O)[C@H](Cc1c[nH]c2ccccc12)NC(=O)[C@H](Cc1ccc(O)cc1)NC(=O)[C@@H]1CSCCCCCSC[C@H](NC(=O)[C@@H](N)[C@@H](C)O)C(=O)N[C@@H](Cc2ccccc2)C(=O)N[C@@H](C)C(=O)N1` (H-TCFACYW-X3; linker 2-5 via X7), for which the inhibition in assay [1] amounted to 30%; in assay [2], 12%.

With `CC(C)[C@@H](CNC(N)=O)NC(=O)NC[C@H](C)NC(=O)NC[C@H](C)NC(=O)[C@H](Cc1c[nH]c2ccccc12)NC(=O)[C@H](Cc1ccc(O)cc1)NC(=O)[C@@H]1CSCCCCCCSC[C@H](NC(=O)[C@@H](N)[C@@H](C)O)C(=O)N[C@@H](Cc2ccccc2)C(=O)N[C@@H](C)C(=O)N1` (H-TCFACYW-X3; linker 2-5 via X11), the figures for the inhibition in assay [1] and in assay [2] were 36% and 14%, respectively.

For `CC(C)[C@@H](CNC(N)=O)NC(=O)NC[C@@H]1CSCCCSC[C@H](NC(=O)[C@H](C)NC(=O)[C@H](Cc2ccccc2)NC(=O)[C@H](CO)NC(=O)[C@@H](N)[C@@H](C)O)C(=O)N[C@@H](Cc2ccc(O)cc2)C(=O)N[C@@H](Cc2c[nH]c3ccccc23)C(=O)N[C@@H](C)CNC(=O)N1` (H-TSFACYW; linker 5-C via X10), the inhibition in assay [1] is 15%; in assay [2] it was 4%.

Take `CC(C)[C@@H](CNC(N)=O)NC(=O)NC[C@H](C)NC(=O)NC[C@@H]1CSCCCCCCSC[C@H](NC(=O)[C@H](Cc2ccccc2)NC(=O)[C@H](CO)NC(=O)[C@@H](N)[C@@H](C)O)C(=O)N[C@@H](C)C(=O)N[C@@H](Cc2ccc(O)cc2)C(=O)N[C@@H](Cc2c[nH]c3ccccc23)C(=O)N1` (H-TSFCAYW; linker 4-C via X1): the inhibition in assay [1] is 42%; in assay [2], -3%.

Turning to `C[C@@H](CNC(N)=O)NC(=O)NC[C@H](C)NC(=O)NC[C@@H]1CSC/C=C/CSC[C@H](NC(=O)[C@H](Cc2ccccc2)NC(=O)[C@H](CO)NC(=O)[C@@H](N)[C@@H](C)O)C(=O)N[C@@H](CCC(=O)O)C(=O)N[C@@H](Cc2ccc(O)cc2)C(=O)N[C@@H](Cc2c[nH]c3ccccc23)C(=O)N1` (H-TSFCEYW; linker 4-C via X8), the inhibition was determined as 82% in assay [1] and 57% in assay [2].

On to `CC(C)[C@@H](CNC(N)=O)NC(=O)NC[C@H](C)NC(=O)NC[C@@H]1CSCc2ccc(cc2)CSC[C@H](NC(=O)[C@H](Cc2ccccc2)NC(=O)[C@H](CO)NC(=O)[C@@H](N)[C@@H](C)O)C(=O)N[C@@H](CCC(=O)O)C(=O)N[C@@H](Cc2ccc(O)cc2)C(=O)N[C@@H](Cc2c[nH]c3ccccc23)C(=O)N1` (H-TSFCEYW; linker 4-C via X12), for which the inhibition is 21% in assay [1] and -4% in assay [2].

Take `CC(C)[C@@H](CNC(N)=O)NC(=O)NC[C@H](C)NC(=O)NC[C@@H]1CSCCCCCSC[C@H](NC(=O)[C@H](Cc2ccccc2)NC(=O)[C@H](CO)NC(=O)[C@@H](N)[C@@H](C)O)C(=O)N[C@@H](CCC(=O)O)C(=O)N[C@@H](Cc2ccc(O)cc2)C(=O)N[C@@H](Cc2c[nH]c3ccccc23)C(=O)N1` (H-TSFCEYW; linker 4-C via X13): the inhibition is 79% in assay [1] and 47% in assay [2].

Consider `CC(C)[C@@H](CNC(N)=O)NC(=O)NC[C@H](C)NC(=O)NC[C@@H]1CSCCCCCCSC[C@H](NC(=O)[C@H](Cc2ccccc2)NC(=O)[C@H](CO)NC(=O)[C@@H](N)[C@@H](C)O)C(=O)N[C@@H](CCC(N)=O)C(=O)N[C@@H](Cc2ccc(O)cc2)C(=O)N[C@@H](Cc2c[nH]c3ccccc23)C(=O)N1` (H-TSFCQYW; linker 4-C via X1), for which the inhibition in assay [1] amounted to 85%; in assay [2], 36%.

Regarding `CC(C)[C@@H](CNC(N)=O)NC(=O)NC[C@H](C)NC(=O)NC[C@@H]1CSCCCCCCSC[C@H](NC(=O)[C@H](Cc2ccccc2)NC(=O)[C@H](CO)NC(=O)[C@@H](N)[C@@H](C)O)C(=O)N[C@@H](CCCNC(=N)N)C(=O)N[C@@H](Cc2ccc(O)cc2)C(=O)N[C@@H](Cc2c[nH]c3ccccc23)C(=O)N1` (H-TSFCRYW; linker 4-C via X1), the inhibition turned out to be 42% in assay [1] and 2% in assay [2].

The record behind these values is ChEMBL document CHEMBL6087461, “Cell-Permeable Peptide Inhibitors of the p53-hDM2 Interaction via Foldamer Helix Mimicry and Bis-Thioether Stapling” (J Med Chem, 2025).
